The nature of data set [1]: De-gelling temperature of aqueous surfactant blends by low shear rheology (Bohlin Gemini rheometer, storage modulus vs temperature). The format is physicochemical. How it is done:
The temperatures at which blends of capped and uncapped surfactants de-gel were determined by standard low shear rheology with a Bohlin™ Gemini rheometer. The storage modulus (G′) at 1 Hz was determined at a strain of 0.001-0.002 in a standard C14 cup and bob geometry over a temperature range of 5-70° C., the exact range depending on the de-gelling point of the sample. Plots of storage modulus versus temperature were constructed and the de-gelling temperature was taken to be the point at which the modulus begins to fall rapidly from its high value in the gelled state (typically ca. 10^5 Pa) down to the final value in the de-gelled state (less than 10 Pa). Blends of surfactants were prepared at from 25 to 40% w/w total surfactant concentration in water. Samples were left in an oven at 55° C. for several days to ensure that the mixtures were homogeneous. Samples were placed in the C14 cup and the samples were de-gelled by raising the temperature in the rheometer, the bob was then inserted and the sample was then cooled at 1° C./min, whilst the storage modulus was regularly recorded during the cooling. Once the final temperature had been reached (i.e. when the sample had gelled), the temperature was then increased again and the modulus again recorded. The de-gelling temperature was determined from the increasing temperature cycle.
Degelling temperatures—the measurements relied on the same method as for ‘Example 1’ but just at 30% w/w total surfactant concentration.
De-gelling temperatures were measured using the same method as in Example 1.
(§1) This example provides de-gelling, cloud point and adjuvancy data for dodecyl 23 ethoxylate with n-hexyl cap and hexadecyl 20 ethoxylate with n-hexyl cap Cloud points were measured as described in example 1 for 1% aqueous solutions of the capped and uncapped surfactants both individually and as blends (see Table 30). Degelling temperatures were also measured as outlined in example 1 for 25, 30, 35 and 40% aqueous solutions of the capped and uncapped surfactants both individually and as blends (see Table 31).
(§2) This example provides de-gelling, cloud point and adjuvancy data for oleyl 20 ethoxylate with n-butyl, n-pentyl or benzyl ether caps end capped oleyl 20 ethoxylate. Cloud points were measured as described in example 1 for 1% aqueous solutions of the capped and uncapped surfactants both individually and as blends. Degelling temperatures were also measured as outlined in example 1 for 25, 30, 35 and 40% aqueous solutions o of the capped and uncapped surfactants both individually and as blends.

Data set [2] can be described thus: Cloud point measurement (absorbance at 500 nm as a function of temperature). The format is physicochemical. How it is done: Consistent with the standard method for measuring the cloud point of surfactants, the cloud point of each of the above blends was measured at a total concentration of 1% w/w in water using a Perkin Elmer spectrophotometer fitted with a PTP6 temperature controller. The absorbance of the solution at 500 nm wavelength was determined as a function of temperature. The cloud point was recorded as the onset of a rapid increase in absorbance as the solution began to cloud.
Cloud point—the measurements relied on the same method as for ‘Example 1’
Cloud points—were measured using the same method as in Example 1.
as §1, §2

The next data set relates to Avena fatua (AVEFA). In words: Glasshouse adjuvancy test for pinoxaden on AVEFA. The format is in vivo. The settings on record: pinoxaden 15 g ai/ha, total surfactant 0.2% w/v, 21 days. How it is done:
The efficacy of 1:1 blends of oleyl 20EO with oleyl 20EO with either n-hexanoyl, n-octanoyl or 2-ethyl hexanoyl ester caps as adjuvants for the herbicide pinoxaden was tested in a glasshouse against two weed species, sown into standard soil in pots and cultivated under controlled conditions in a glasshouse (20/16° C. day/night; 16 hours light; 65% humidity). Pinoxaden was added to the spray tank as a standard EC (emulsifiable concentrate) formulation. The plants were sprayed with pinoxaden at rates of 7.5 or 15 grams of pesticide per hectare using a laboratory track sprayer which delivered the aqueous spray composition at a rate of 200 litres per hectare, using a flat fan nozzle (Teejet 11002VS) at 2 bar. The spray solutions also contained the oleyl 20EO alone or in the 1:1 blends with the capped surfactants. The adjuvants were added to the spray solution at a total surfactant rate of 0.2% w/v. All spray solutions also contained 10% w/w of iso-propanol. The weed species and their BBCH growth stage at spraying were Avena fatua (AVEFA; growth stage 13) and Setaria viridis (SETVI; growth stage 13). Each spray test was replicated three times. The test plants were then grown in a glasshouse under controlled conditions (20/16° C. day/night; 16 hours light; 65% humidity) and watered twice a day. The efficacy of the herbicide was assessed visually and expressed as a percentage of the leaf area killed. Samples were assessed at a time period of 21 days following application.
Dodecyl 23EO and hexadecyl 20EO were capped with an n-hexyl ether cap. The efficacy of 1:1 blends of these with their uncapped counterparts were tested as adjuvants for the herbicide pinoxaden was tested in a glasshouse against two weed species, sown into standard soil in pots and cultivated under controlled conditions in a glasshouse (20/16° C. day/night; 16 hours light; 65% humidity). Pinoxaden was added to the spray tank as a standard EC (emulsifiable concentrate) formulation. The plants were sprayed with pinoxaden at a.i. rates of 7.5 or 15 grams per hectare using a laboratory track sprayer which delivered the aqueous spray composition at a rate of 200 litres per hectare, using a flat fan nozzle (Teejet 11002VS) at 2 bar. The spray solutions tested included the capped and uncapped alone or in the 1:1 blends with the capped surfactants. The adjuvants were added to the spray solution at a total surfactant rate of 0.2% w/v. All spray solutions also contained 10% w/w of iso-propanol. The weed species and their BBCH growth stage at spraying was Avena fatua (AVEFA; growth stage 12). Each spray test was replicated three times. The test plants were then grown in a glasshouse under controlled conditions (20/16° C. day/night; 16 hours light; 65% humidity) and watered twice a day. The efficacy of the herbicide was assessed visually and expressed as a percentage of the leaf area killed. Samples were assessed at a time period of 21 days following application.
Oleyl 20EO was capped with -butyl, n-pentyl and n-benzyl caps. The efficacy of 1:1 blends of these with their uncapped counterparts were tested as adjuvants for the herbicide pinoxaden was tested in a glasshouse against two weed species, sown into standard soil in pots and cultivated under controlled conditions in a glasshouse (20/16° C. day/night; 16 hours light; 65% humidity). Pinoxaden was added to the spray tank as a standard EC (emulsifiable concentrate) formulation. The plants were sprayed with pinoxaden at a.i. rates of 7.5 or 15 grams per hectare using a laboratory track sprayer which delivered the aqueous spray composition at a rate of 200 litres per hectare, using a flat fan nozzle (Teejet 11002VS) at 2 bar. The spray solutions tested included the capped and uncapped alone or in the 1:1 blends with the capped surfactants. The adjuvants were added to the spray solution at a total surfactant rate of 0.2% w/v. All spray solutions also contained 10% w/w of iso-propanol.

In data set [3] the test system is Chenopodium album (CHEAL). In words: Glasshouse adjuvancy test for nicosulfuron on CHEAL. The format is in vivo. The method, then: (§3) The biological efficacies of blends of an oleyl 20 ethoxylate uncapped surfactant with an oleyl 20 ethoxylate surfactant with an n-hexyl ether cap as adjuvants for the herbicide nicosulfuron were tested in a glasshouse against three weed species sown into standard soil in pots and cultivated under controlled conditions in a glasshouse (24/18° C. day/night; 16 hours light; 65% humidity). Nicosulfuron was added to the spray tank as a standard WG (water dispersible granule) formulation. The plants were sprayed with nicosulfuron at rates of 15 or 60 grams of pesticide per hectare using a laboratory track sprayer which delivered the aqueous spray composition at a rate of 200 litres per hectare, using a flat fan nozzle (Teejet 11002VS) at 2 bar. The adjuvants were added to the spray solution at a total rate of 0.1 or 0.2% w/v in all cases and at extra lower rates for the oleyl 20EO alone and its 1:1 blend with the oleyl 20EO n-hexyl ether to show the dose response to these adjuvants. All spray solutions also contained 10% w/w of iso-propanol. The weed species and their BBCH growth stage at spraying were Chenopodium album (CHEAL; growth stage 15), Digitaria sanguinalis (DIGSA; growth stage 14), and Commelina benghalensis (COMBE; growth stage 14). Each spray test was replicated three times. The test plants were then grown in a glasshouse under controlled conditions (24/18° C. day/night; 16 hours light; 65% humidity) and watered twice a day. The efficacy of the herbicide was assessed visually and expressed as a percentage of the leaf area killed. Samples were assessed at a time period of 21 days following application. The following tables (3-8) show the effect of blends of the two surfactants at a total concentration of 0.2 and 0.1%. In each case the blends were 1:0, 3:1, 1:1, 1:3 and 0:1 w/w of oleyl 20EO:oleyl 20 EO n-hexyl ether.
The biological efficacies of blends of oleyl 20 ethoxylate and oleyl 20EO ethoxylate with a benzoate cap as adjuvants for the herbicide nicosulfuron were tested in a glasshouse using the same method as for ‘Example 1’ but against just two weed species and with just 0.2% w/v total adjuvant concentration. The weed species and their BBCH growth stage at spraying HI were Chenopodium album (CHEAL; growth stage 13-15) and Digitaria sanguinalis (DIGSA; growth stage 14-22).
The biological efficacies of 1:1 blends of an oleyl 20 ethoxylate uncapped surfactant with oleyl 20E ethoxylate surfactants with hexanoyl, n-octanoyl or 2-ethyl hexanoyl ester caps as adjuvants for the herbicide nicosulfuron were tested in a glasshouse using the same method as for ‘Example 1’ but against just one weed species and at 0.2% w/v tital adjuvant concentration. The weed species and its BBCH growth stage at spraying was Chenopodium album (CHEAL; growth stage 15).

The subject of data set [4] is Digitaria sanguinalis (DIGSA). In words: Glasshouse adjuvancy test for nicosulfuron on DIGSA. In kind it is in vivo. The method, then:
as §3, with “ether. The biological efficacies of blends of oleyl 20 ethoxylate and oleyl 20EO ethoxylate with a benzoate cap as adjuvants for the herbicide nicosulfuron were tested in a glasshouse using the same method as for ‘Example 1’ but against just two weed species and with just 0.2% w/v total adjuvant concentration. The weed species and their BBCH growth stage at spraying HI were Chenopodium album (CHEAL; growth stage 13-15) and Digitaria sanguinalis (DIGSA; growth stage 14-22).” for “ether.”

Where [5] appears, read: dose response, nicosulfuron 15 g ai/ha, adjuvant 0%.
Setting [6] is: dose response, nicosulfuron 60 g ai/ha, adjuvant 0%.

Turning to `CCCCCCCCCCCCCCCCOCCOCCOCCOCCOCCOCCOCCOCCOCCOCCOCCOCCOCCOCCOCCOCCOCCOCCOCCOCCO` [Hexadecyl 20EO, hexadecyl 20 ethoxylate], the De-gelling temperature was 23.2 °C in data set [1] (total surfactant concentration 25% w/w, Table 31); 48.7 °C in data set [1] (total surfactant concentration 30% w/w, Table 31); 66.1 °C in data set [1] (total surfactant concentration 35% w/w, Table 31); 74.1 °C in data set [1] (total surfactant concentration 40% w/w, Table 31). Moreover, in data set [2] (1% aqueous solutions, Table 30), the Cloud point is over 90.0 °C. This compound also displayed a Mean control with Avena fatua (AVEFA) (Example 7, growth stage 12) of 90.3%.

Turning to `CCCCCCCC/C=C\CCCCCCCCOCCOCCOCCOCCOCCOCCOCCOCCOCCOCCOCCOCCOCCOCCOCCOCCOCCOCCOCCOCCOC(=O)c1ccccc1` [Oleyl 20EO benzoate, oleyl 20 ethoxylate benzoate], the De-gelling temperature in data set [1] (30% w/w total surfactant concentration, Table 15) is under 3.8 °C. The same compound had a Cloud point in data set [2] (1%, Table 15) of 27.3 °C. Besides, the Mean control in data set [3] (nicosulfuron 15 g ai/ha, 0.2% w/v total adjuvant, Example 3, growth stage 13-15) stood at 75.0%; in data set [3] (nicosulfuron 60 g ai/ha, 0.2% w/v total adjuvant, Example 3, growth stage 13-15), 81.7%; in data set [4] (nicosulfuron 15 g ai/ha, 0.2% w/v total adjuvant, Example 3, growth stage 14-22) it was 96.7%; in data set [4] (nicosulfuron 60 g ai/ha, 0.2% w/v total adjuvant, Example 3, growth stage 14-22) it was 99.3%.

On to `CCCCCCCC/C=C\CCCCCCCCOCCOCCOCCOCCOCCOCCOCCOCCOCCOCCOCCOCCOCCOCCOCCOCCOCCOCCOCCOCCOC(=O)CCCCC` [Oleyl 20EO n-hexanoyl ester, oleyl 20EO n-hexanoyl ester], for which the Degelling temperature in data set [1] (total surfactant concentration 40% w/w, Table 18) was 13.6 °C. Further, in data set [2] (1%, Table 20), the Cloud point worked out at 28.0 °C.

For the compound `CCCCCCCC/C=C\CCCCCCCCOCCOCCOCCOCCOCCOCCOCCOCCOCCOCCOCCOCCOCCOCCOCCOCCOCCOCCOCCOCCOC(=O)CCCCCCC` [Oleyl 20EO n-octanoyl ester, oleyl 20EO n-octanoyl ester], the De-gelling temperature in data set [1] (40% w/w, Table 19) was 16.5 °C.

`COc1cc(OC)nc(NC(=O)NS(=O)(=O)c2ncccc2C(=O)N(C)C)n1` [nicosulfuron]: the Mean control is on record as 4.0% in data set [3] (setting [5]), 8.3% in data set [3] (setting [6]), 4.0% in data set [4] (setting [5]) and 33.3% in data set [4] (setting [6]).

The compound Oleyl 20EO n-butyl ether displayed a Mean control in the data set on Avena fatua (AVEFA) (Example 9, growth stage 12) of 96.3%.
